# Reference: patent publication US11572402B2, “Method for promoting diversification of antibody variable region” (Chiome Bioscience Inc., priority 2017, dated 2023)
# System: BMAA4-2 cell line
# Test: Sequence change analysis of antibody variable regions according to NGS (NUS, SBL)
# Format: cell-based, chicken
# Settings: BMAA4-2 cells, versus negative control sample
# Procedure: A frozen stock of the BMAA4-2 cell line (3.0×10^6 cells) was awaken with 10 mL of CS(−) medium, using a 25 cm^2 Flask, and the cells were then cultured in a CO2 incubator (39.5° C., 5% CO2). On the following day, 2 mL each of a CS(−) medium, to which each drug had been added, was added into each well of a 12-well dish (Nunc, 150628), and the cells were then seeded thereon to a cell density of 6.0×10^4 cells/mL (wherein the cell concentration and the survival rate were measured using CASY cell counter). After individual samples had been cultured for 2 days, the samples were subcultured under the same conditions to result in a cell density of 1.0×10^4 cells/mL. After completion of the culture for 3 days, individual samples were subcultured in a 25 cm^2 Flask to result in a cell density of 6.0×10^4 cells/mL with respect to 10 mL of the medium under the same conditions. After completion of the culture for 2 days (Day 7 of the culture), individual samples (in each amount of 2.0×10^6 cells) were recovered in a 1.5-mL tube, and thereafter, a supernatant was removed by centrifugation at 1,000×g for 5 min. The residue was re-suspended in 1 mL of D-PBS(−) (Nacalai Tesque, 14249-24), and a supernatant was then removed by centrifugation at 1,000×g for 5 min. The residue was preserved at −80° C. Moreover, individual samples from the remaining cells were subcultured in a 12-well dish to result in a cell density of 6.0×10^4 cells/mL with respect to 2 mL of the medium under the same conditions. After completion of the culture for 2 days, individual samples were subcultured under the same conditions to result in a cell density of 1.0×10^4 cells/mL. After completion of the culture for 3 days, individual samples were subcultured in a 25 cm^2 Flask to result in a cell density of 6.0×10^4 cells/mL with respect to 10 mL of the medium under the same conditions. After completion of the culture for 2 days (Day 14 of the culture), individual samples (in each amount of 2.0×10^6 cells) were recovered in a 1.5-mL tube, and thereafter, a supernatant was removed by centrifugation at 1,000×g for 5 min. The residue was re-suspended in 1 mL of D-PBS(−), and a supernatant was then removed by centrifugation at 1,000×g for 5 min. The residue was preserved at −80° C.
# A frozen stock of the BMAA4-2 cell line (3.0×10^6 cells) was awaken with 10 mL of CS(−) medium, using a 25 cm^2 Flask, and the cells were then cultured in a CO2 incubator (39.5° C., 5% CO2). On the following day, 1 mL each of a CS(−) medium, to which each drug had been added, was added into each well of a 24-well dish, and the cells were then seeded thereon to a cell density of 3.0×10^5 cells/mL (wherein the cell concentration and the survival rate were measured using CASY cell counter). […]
smiles,measurement,setting,value
Cc1nc(NC(=O)N2CCC[C@H]2C(N)=O)sc1-c1csc(C(C)(C)C)n1 [A66],"NUS (number of unique sequences), antibody heavy chain variable region amino acid sequences",heavy chain,higher values than the negative control sample
same,"SBL (sum of branch length), antibody heavy chain variable region amino acid sequences",heavy chain,higher values than the negative control sample
same,"NUS (number of unique sequences), antibody light chain variable region amino acid sequences",light chain,higher values than the negative control sample
same,"SBL (sum of branch length), antibody light chain variable region amino acid sequences",light chain,higher values than the negative control sample
